{"source": "patent US7459141B2", "about": "“Technetium-99m-labeled organic germanium nanocolloids, method of preparing the same and use thereof” (Korea Atomic Energy Research Institute, priority 2006, dated 2008)", "origin": "cited, not measured here", "data": [{"smiles": "O=C(O)C[CH2][Ge](=[O])[O][Ge](=[O])[CH2]CC(=O)O", "note": "[Ge-132, bis-carboxyethylgermanium sesquioxide]", "values": [{"measurement": "tissue concentration after an intravenous (i.v) injection", "setting": "intravenous", "result": "concentrates in liver, kidney, spleen and gastrointestine tract"}, {"measurement": "tissue concentration after an oral administration", "setting": "oral", "result": "concentrates highly in spleen"}]}]}
